Experimental data from ChEMBL document CHEMBL3046794, “Synthesis and blood glucose lowering activity of some novel benzenesulfonylurea derivatives substituted with 6-aryl-4,5-dihyropyridazin-3(2H)-ones” (2012).
Activity calls are given as the source filed them. No cut-off for these calls is given here.

Columns and labels:
Rattus norvegicus [1] = test: Antidiabetic activity in overnight fastedRattus norvegicus albino (rat) assessed as reduction in blood glucose level at 20 mg/kg, po measured after 60 min by oral glucose tolerance test relative to control (reference value: 78.0 +/- 1.167 mg/dl); format: functional
Rattus norvegicus [2] = test: Antidiabetic activity in Rattus norvegicus albino (rat) assessed as inhibition in rise of blood glucose level at 20 mg/kg, po administered 30 min prior to glucose challenge measured post 60 min of challenge by oral glucose tolerance test relative to control; format: functional

CCc1ccc(C2=NN(c3ccc(S(=O)(=O)NC(=O)NCc4ccccc4)cc3)C(=O)CC2)cc1
Activity (Rattus norvegicus [1]): 62 mg/dL
inhibition in vivo at 20 mg/kg (Rattus norvegicus [2]): 86.9%

O=C(NCc1ccccc1)NS(=O)(=O)c1ccc(N2N=C(c3ccc(Oc4ccccc4)cc3)CCC2=O)cc1
inhibition (Rattus norvegicus [2]): inactive

Cc1ccc(S(=O)(=O)NC(=O)NN2CC3CCCC3C2)cc1 (stereo not drawn) [GLICLAZIDE]
Activity (Rattus norvegicus [1]): 58.2 mg/dL
inhibition in vivo at 20 mg/kg (Rattus norvegicus [2]): 61.4%

Cc1ccc(C2=NN(c3ccc(S(=O)(=O)NC(=O)NCc4ccccc4)cc3)C(=O)CC2)c(C)c1
inhibition in vivo at 20 mg/kg (Rattus norvegicus [2]): 6.5%

Cc1ccc(C2=NN(c3ccc(S(=O)(=O)NC(=O)NCc4ccccc4)cc3)C(=O)CC2)cc1
inhibition (Rattus norvegicus [2]): inactive

COc1ccc(C2=NN(c3ccc(S(=O)(=O)NC(=O)NCc4ccccc4)cc3)C(=O)CC2)cc1
inhibition in vivo at 20 mg/kg (Rattus norvegicus [2]): 41.4%
